Assay results from patent publication US20230072683A1, “PYRIDO-PYRIMIDIN DERIVATIVES AND PHARMACEUTICAL COMPOSITION, FOR USE IN PREVENTING OR TREATING PI3 KINASE RELATED DISEASES, COMPRISING SAME AS ACTIVE INGREDIENT” (BORYUNG PHARMACEUTICAL CO., LTD, priority 2019, published 2023).

Experiments:
[1] = molecular target: PI3K-δ (PI3K(p1108/p857) (h)) (Homo sapiens, UniProt O00329); assay: Evaluation of inhibitory activity against PI3K-δ (HTRF kinase assay); format: biochemical; details: for inhibition at 0.01 µM: compound concentration 0.01 μM, read-out: EXP_VALUE(% Inhibition) PI3K-δ 0.01 μM; for inhibition at 0.1 µM: compound concentration 0.1 μM, read-out: EXP_VALUE(% Inhibition) PI3K-δ 0.1 μM
Chain of PI3K-δ (PI3K(p1108/p857) (h)) (O00329 whole entry, the tested form may be a part): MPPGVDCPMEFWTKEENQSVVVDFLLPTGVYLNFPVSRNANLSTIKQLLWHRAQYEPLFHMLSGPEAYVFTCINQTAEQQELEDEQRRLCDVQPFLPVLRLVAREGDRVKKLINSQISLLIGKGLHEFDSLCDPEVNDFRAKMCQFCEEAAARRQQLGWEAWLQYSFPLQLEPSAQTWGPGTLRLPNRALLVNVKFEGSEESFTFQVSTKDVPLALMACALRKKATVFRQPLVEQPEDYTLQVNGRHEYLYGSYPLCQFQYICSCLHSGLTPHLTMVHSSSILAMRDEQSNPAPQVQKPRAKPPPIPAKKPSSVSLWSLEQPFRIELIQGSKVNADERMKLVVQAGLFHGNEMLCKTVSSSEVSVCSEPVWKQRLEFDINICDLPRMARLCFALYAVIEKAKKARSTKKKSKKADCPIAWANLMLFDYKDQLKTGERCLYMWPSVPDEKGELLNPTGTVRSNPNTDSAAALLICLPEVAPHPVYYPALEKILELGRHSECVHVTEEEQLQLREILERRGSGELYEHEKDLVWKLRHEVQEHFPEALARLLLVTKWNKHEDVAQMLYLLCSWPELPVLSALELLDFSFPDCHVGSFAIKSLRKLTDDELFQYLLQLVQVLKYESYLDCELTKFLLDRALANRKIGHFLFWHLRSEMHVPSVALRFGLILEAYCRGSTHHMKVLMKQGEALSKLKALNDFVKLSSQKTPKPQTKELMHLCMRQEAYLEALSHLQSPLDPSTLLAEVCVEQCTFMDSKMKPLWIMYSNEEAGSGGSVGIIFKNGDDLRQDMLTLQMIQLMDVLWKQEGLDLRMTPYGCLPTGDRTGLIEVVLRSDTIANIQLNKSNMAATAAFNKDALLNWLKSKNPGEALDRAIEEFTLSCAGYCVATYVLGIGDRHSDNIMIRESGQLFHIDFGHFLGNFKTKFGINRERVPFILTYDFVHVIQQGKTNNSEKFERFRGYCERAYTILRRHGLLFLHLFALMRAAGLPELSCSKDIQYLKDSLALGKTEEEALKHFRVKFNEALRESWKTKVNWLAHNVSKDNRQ
Chain of PI3K-δ (PI3K(p1108/p857) (h)) (P27986 whole entry partner, the tested form may be a part): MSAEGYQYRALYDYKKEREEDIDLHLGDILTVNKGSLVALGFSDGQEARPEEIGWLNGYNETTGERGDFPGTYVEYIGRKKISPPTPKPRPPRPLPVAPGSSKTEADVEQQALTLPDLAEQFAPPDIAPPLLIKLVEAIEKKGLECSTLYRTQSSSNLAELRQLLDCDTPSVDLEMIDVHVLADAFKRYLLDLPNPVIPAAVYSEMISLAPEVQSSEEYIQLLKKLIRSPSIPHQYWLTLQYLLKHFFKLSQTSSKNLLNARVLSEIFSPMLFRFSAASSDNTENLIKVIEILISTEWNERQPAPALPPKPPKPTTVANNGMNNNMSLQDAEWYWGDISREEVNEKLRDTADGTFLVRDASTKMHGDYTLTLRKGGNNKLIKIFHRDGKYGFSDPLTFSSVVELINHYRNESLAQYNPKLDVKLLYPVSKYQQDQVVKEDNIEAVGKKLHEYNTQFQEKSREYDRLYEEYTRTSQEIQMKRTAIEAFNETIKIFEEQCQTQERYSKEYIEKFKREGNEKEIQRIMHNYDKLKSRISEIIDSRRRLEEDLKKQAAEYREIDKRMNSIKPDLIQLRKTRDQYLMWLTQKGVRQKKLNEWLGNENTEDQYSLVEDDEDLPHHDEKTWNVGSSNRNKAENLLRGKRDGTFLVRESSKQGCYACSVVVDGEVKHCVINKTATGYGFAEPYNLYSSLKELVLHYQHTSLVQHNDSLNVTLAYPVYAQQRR
Method in brief: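 HTRF read-out (665/620 nm ratio ×10000) used Eu-labelled anti-GST, GST-tagged GRP1 PH domain and streptavidin-allophycocyanin after EDTA/PIP3 stop.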

[2] = molecular target: DNA-PK(h) (Homo sapiens, UniProt P78527); assay: Evaluation of inhibitory activity against DNA-PK (HTRF kinase assay, GST-cMyc-p53 substrate); format: biochemical; details: for inhibition at 0.01 µM: compound concentration 0.01 μM, read-out: EXP_VALUE(% Inhibition) DNA-PK(h) 0.01 μM; for inhibition at 0.1 µM: compound concentration 0.1 μM, read-out: EXP_VALUE(% Inhibition) DNA-PK(h) 0.1 μM
Method in brief: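 p53 Ser15 phosphorylation by human DNA-PK was measured by time-resolved FRET ratio (665/620 nm ×10000) using Eu-labelled anti-phospho-Ser15 and d2 anti-GST antibodies. Substrate GST-cMyc-p53 at 50 μM; Mg/ATP-initiated, 30 min at room temperature, EDTA stop.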

| SMILES | inhibition at 0.01 µM [1] [%] | inhibition at 0.1 µM [1] [%] | inhibition at 0.01 µM [2] [%] | inhibition at 0.1 µM [2] [%] |
| --- | --- | --- | --- | --- |
| C[C@H](Nc1ncnc2[nH]ccc(=O)c12)c1cc2cccc(-c3ccc(N(C)C)nc3)c2c(=O)n1-c1ccccc1 [Example 264, (S)-4-((1-(8-(6-(dimethylamino)pyridin-3-yl)-1-oxo-2-phenyl-1,2-dihydroisoquinolin-3-yl)ethyl)amino)pyrido[2,3-d]pyrimidin-5(8H)-one] | 73 | 82 | 7 | 41 |
| C[C@H](Nc1ncnc2[nH]ccc(=O)c12)c1c(Cl)c2cccc(C#N)c2c(=O)n1-c1ccccc1 [Example 265, (S)-4-chloro-1-oxo-3-(1-((5-oxo-5,8-dihydropyrido[2,3-d]pyrimidin-4-yl)amino)ethyl)-2-phenyl-1,2-dihydroisoquinoline-8-carbonitrile] | 71 | 87 | 40 | 77 |
| C[C@H](Nc1ncnc2[nH]ccc(=O)c12)c1cc2cccc(C#N)c2c(=O)n1-c1ccccc1 [Example 266, (S)-1-oxo-3-(1-((5-oxo-5,8-dihydropyrido[2,3-d]pyrimidin-4-yl)amino)ethyl)-2-phenyl-1,2-dihydroisoquinoline-8-carbonitrile] | 69 | 88 | -10 | 3 |
| CC(=O)c1cccc2c(Cl)c([C@H](C)Nc3ncnc4[nH]ccc(=O)c34)n(-c3ccccc3)c(=O)c12 [Example 267, (S)-4-((1-(8-acetyl-4-chloro-1-oxo-2-phenyl-1,2-dihydroisoquinolin-3-yl)ethyl)amino)pyrido[2,3-d]pyrimidin-5(8H)-one] | 92 | – | 63 | – |
| CCCC(=O)c1cccc2c(Cl)c([C@H](C)Nc3ncnc4[nH]ccc(=O)c34)n(-c3ccccc3)c(=O)c12 [Example 268, (S)-4-((1-(8-butyryl-4-chloro-1-oxo-2-phenyl-1,2-dihydroisoquinolin-3-yl)ethyl)amino)pyrido[2,3-d]pyrimidin-5(8H)-one] | 76 | – | 27 | – |
| C[C@H](Nc1ncnc2[nH]ccc(=O)c12)c1c(Cl)c2cccc(C(=O)C3CC3)c2c(=O)n1-c1ccccc1 [Example 269, (S)-4-((1-(4-chloro-8-(cyclopropanecarbonyl)-1-oxo-2-phenyl-1,2-dihydroisoquinolin-3-yl)ethyl)amino)pyrido[2,3-d]pyrimidin-5(8H)-one] | 37 | – | 26 | – |
| C[C@H](Nc1ncnc2[nH]ccc(=O)c12)c1c(Cl)c2cccc(C=O)c2c(=O)n1-c1ccccc1 [Example 271, (S)-4-chloro-1-oxo-3-(1-((5-oxo-5,8-dihydropyrido[2,3-d]pyrimidin-4-yl)amino)ethyl)-2-phenyl-1,2-dihydroisoquinolin-8-carbaldehyde] | 60 | – | 19 | – |
| C[C@H](Nc1ncnc2[nH]ccc(=O)c12)c1c(Cl)c2cccc(/C=N/O)c2c(=O)n1-c1ccccc1 [Example 273, (S,E)-4-chloro-1-oxo-3-(1-((5-oxo-5,8-dihydropyrido[2,3-d]pyrimidin-4-yl)amino)ethyl)-2-phenyl-1,2-dihydroisoquinoline-8-carbaldehyde oxime] | 44 | – | 36 | – |
| CNC(=O)c1cccc2c(Cl)c([C@H](C)Nc3ncnc4[nH]ccc(=O)c34)n(-c3ccccc3)c(=O)c12 [Example 274, (S)-4-chloro-N-methyl-1-oxo-3-(1-((5-oxo-5,8-dihydropyrido[2,3-d]pyrimidin-4-yl)amino)ethyl)-2-phenyl-1,2-dihydroisoquinoline-8-carboxamide] | 99 | – | 18 | – |
| CCCNC(=O)c1cccc2c(Cl)c([C@H](C)Nc3ncnc4[nH]ccc(=O)c34)n(-c3ccccc3)c(=O)c12 [Example 275, (S)-4-chloro-1-oxo-3-(1-((5-oxo-5,8-dihydropyrido[2,3-d]pyrimidin-4-yl)amino)ethyl)-2-phenyl-N-propyl-1,2-dihydroisoquinoline-8-carboxamide] | 104 | – | 8 | – |
| C[C@H](Nc1ncnc2[nH]ccc(=O)c12)c1c(Cl)c2cccc(C(=O)NC3COC3)c2c(=O)n1-c1ccccc1 [Example 276, (S)-4-chloro-N-(oxetan-3-yl)-1-oxo-3-(1-((5-oxo-5,8-dihydropyrido[2,3-d]pyrimidin-4-yl)amino)ethyl)-2-phenyl-1,2-dihydroisoquinoline-8-carboxamide] | 96 | – | 29 | – |
| C[C@H](Nc1ncnc2[nH]ccc(=O)c12)c1c(Cl)c2cccc(C(=O)NC3CCC3)c2c(=O)n1-c1ccccc1 [Example 277, (S)-4-chloro-N-cyclobutyl-1-oxo-3-(1-((5-oxo-5,8-dihydropyrido[2,3-d]pyrimidin-4-yl)amino)ethyl)-2-phenyl-1,2-dihydroisoquinoline-8-carboxamide] | 99 | – | 8 | – |
| C[C@H](Nc1ncnc2[nH]ccc(=O)c12)c1c(Cl)c2cccc(C(=O)NCc3cccs3)c2c(=O)n1-c1ccccc1 [Example 278, (S)-4-chloro-1-oxo-3-(1-((5-oxo-5,8-dihydropyrido[2,3-d]pyrimidin-4-yl)amino)ethyl)-2-phenyl-N-(thiophen-2-ylmethyl)-1,2-dihydroisoquinoline-8-carboxamide] | 104 | – | 6 | – |
| C[C@H](Nc1ncnc2[nH]ccc(=O)c12)c1c(Cl)c2cccc(C(=O)NCc3ccco3)c2c(=O)n1-c1ccccc1 [Example 279, (S)-4-chloro-N-(furan-2-ylmethyl)-1-oxo-3-(1-((5-oxo-5,8-dihydropyrido[2,3-d]pyrimidin-4-yl)amino)ethyl)-2-phenyl-1,2-dihydroisoquinoline-8-carboxamide] | 105 | – | 11 | – |
| C[C@H](Nc1ncnc2[nH]ccc(=O)c12)c1c(Cl)c2cccc(C(=O)NCc3ccccc3)c2c(=O)n1-c1ccccc1 [Example 280, (S)—N-benzyl-4-chloro-1-oxo-3-(1-((5-oxo-5,8-dihydropyrido[2,3-d]pyrimidin-4-yl)amino)ethyl)-2-phenyl-1,2-dihydroisoquinoline-8-carboxamide] | 91 | – | 15 | – |
| C[C@H](Nc1ncnc2[nH]ccc(=O)c12)c1c(Cl)c2cccc(C(=O)NCCN3CCOCC3)c2c(=O)n1-c1ccccc1 [Example 281, (S)-4-chloro-N-(2-morpholinoethyl)-1-oxo-3-(1-((5-oxo-5,8-dihydropyrido[2,3-d]pyrimidin-4-yl)amino)ethyl)-2-phenyl-1,2-dihydroisoquinoline-8-carboxamide] | 75 | – | 13 | – |
| CC(C)NC(=O)c1cccc2c(Cl)c([C@H](C)Nc3ncnc4[nH]ccc(=O)c34)n(-c3ccccc3)c(=O)c12 [Example 282, (S)-4-chloro-N-isopropyl-1-oxo-3-(1-((5-oxo-5,8-dihydropyrido[2,3-d]pyrimidin-4-yl)amino)ethyl)-2-phenyl-1,2-dihydroisoquinoline-8-carboxamide] | 79 | – | 14 | – |
| C[C@H](Nc1ncnc2[nH]ccc(=O)c12)c1c(Cl)c2cccc(C(=O)NCC3CC3)c2c(=O)n1-c1ccccc1 [Example 283, (S)-4-chloro-N-(cyclopropylmethyl)-1-oxo-3-(1-((5-oxo-5,8-dihydropyrido[2,3-d]pyrimidin-4-yl)amino)ethyl)-2-phenyl-1,2-dihydroisoquinoline-8-carboxamide] | 81 | – | 12 | – |
| C[C@H](Nc1ncnc2[nH]ccc(=O)c12)c1c(Cl)c2cccc(C(=O)NC(C)(C)CO)c2c(=O)n1-c1ccccc1 [Example 284, (S)-4-chloro-N-(1-hydroxy-2-methylpropan-2-yl)-1-oxo-3-(1-((5-oxo-5,8-dihydropyrido[2,3-d]pyrimidin-4-yl)amino)ethyl)-2-phenyl-1,2-dihydroisoquinoline-8-carboxamide] | 25 | – | 10 | – |
| C[C@H](Nc1ncnc2[nH]ccc(=O)c12)c1c(Cl)c2cccc(C(=O)NC(C)(C)C)c2c(=O)n1-c1ccccc1 [Example 285, (S)—N-(tert-butyl)-4-chloro-1-oxo-3-(1-((5-oxo-5,8-dihydropyrido[2,3-d]pyrimidin-4-yl)amino)ethyl)-2-phenyl-1,2-dihydroisoquinoline-8-carboxamide] | 22 | – | 15 | – |
| C[C@H](Nc1ncnc2[nH]ccc(=O)c12)c1c(Cl)c2cccc(C(=O)N3CCOCC3)c2c(=O)n1-c1ccccc1 [Example 286, (S)-4-((1-(4-chloro-8-(morpholine-4-carbonyl)-1-oxo-2-phenyl-1,2-dihydroisoquinolin-3-yl)ethyl)amino)pyrido[2,3-d]pyrimidin-5(8H)-one] | 52 | – | 23 | – |
| C[C@H](Nc1ncnc2[nH]ccc(=O)c12)c1c(Cl)c2cccc(-c3ncc[nH]3)c2c(=O)n1-c1ccccc1 [Example 287, (S)-4-((1-(4-chloro-8-(1H-imidazol-2-yl)-1-oxo-2-phenyl-1,2-dihydroisoquinolin-3-yl)ethyl)amino)pyrido[2,3-d]pyrimidin-5(8H)-one] | 38 | – | 28 | – |
